Experiment: Part 2 (MAD): plasma pharmacokinetics after BID oral KAR5585 for 14 days (incl. accumulation ratios and dose proportionality)
[1] = KAR5585 200 mg BID fed, Cohort 3, Day 1 PM, mean
[2] = KAR5585 200 mg BID fed, Cohort 3, Day 7 AM, Day 7/Day 1 accumulation ratio, geo. mean
[3] = KAR5585 200 mg BID fed, Cohort 3, Day 7 AM, Day 7/Day 1 accumulation ratio, mean
[4] = KAR5585 200 mg BID fed, Cohort 3, Day 7 AM, geo. mean
[5] = KAR5585 200 mg BID fed, Cohort 3, Day 7 AM, mean
[6] = KAR5585 200 mg BID fed, Cohort 3, Day 7 PM, Day 7/Day 1 accumulation ratio, geo. mean
[7] = KAR5585 200 mg BID fed, Cohort 3, Day 7 PM, Day 7/Day 1 accumulation ratio, mean
[8] = KAR5585 200 mg BID fed, Cohort 3, Day 7 PM, geo. mean
[9] = KAR5585 200 mg BID fed, Cohort 3, Day 7 PM, mean
[10] = KAR5585 200 mg BID fed, Cohort 3, Day 14 AM, Day 14/Day 1 accumulation ratio, geo. mean
[11] = KAR5585 200 mg BID fed, Cohort 3, Day 14 AM, Day 14/Day 1 accumulation ratio, mean
[12] = KAR5585 200 mg BID fed, Cohort 3, Day 14 AM, geo. mean
[13] = KAR5585 200 mg BID fed, Cohort 3, Day 14 AM, mean
[14] = KAR5585 400 mg BID fed, Cohort 4, Day 1 AM, geo. mean
[15] = KAR5585 400 mg BID fed, Cohort 4, Day 1 AM, mean

Excerpt: Food effect was to be evaluated in Part 1, Period 2.
Pharmacokinetic data were to be summarized descriptively.

**Q.** Which t1/2 (KAR5585 200 mg BID fed, Cohort 3, Day 1 PM, geo. mean) does the source give for Nc1nc(O[C@H](c2ccc(Cl)cc2-c2ccccc2)C(F)(F)F)cc(N2CCC3(CC2)CN[C@H](C(=O)O)C3)n1 [KAR5417, (S)-8-(2-amino-6-((R)-1-(5-chloro-[1,1T-biphenyl]-2-yl)-2,2,2-trifluoroeth-oxy)pyrimidin-4-yl)-2,8-diazaspiro[4.5]decane-3-carboxylic acid] here?
**A.** 5.95 h

**Q.** What about the AUC0-12 [1] of the same molecule?
**A.** 2 µg·h/mL

**Q.** And the AUC0-24 [1]?
**A.** 3.7 µg·h/mL

**Q.** And the AUC0-24/D [1]?
**A.** 9.26 (hr*ng/ml)/mg

**Q.** What about the “AUC0-∞” value [1] of the same molecule?
**A.** 2.72 µg·h/mL

**Q.** And the C12 [1]?
**A.** 112 ng/mL

**Q.** And the Cmax [1]?
**A.** 0.322 µg/mL

**Q.** What about the Cmax/D [1] of the same molecule?
**A.** 1.61 (ng/ml)/mg

**Q.** What about the t1/2 [1] of the same molecule?
**A.** 6.03 h

**Q.** And the Tmax (KAR5585 200 mg BID fed, Cohort 3, Day 1 PM, median)?
**A.** 4.0 h

**Q.** What about the RAUC0-12 [2] of the same molecule?
**A.** 1.33

**Q.** What about the RCmax [2] of the same molecule?
**A.** 0.989

**Q.** What about the RAUC0-12 [3] of the same molecule?
**A.** 1.34

**Q.** And the RCmax [3]?
**A.** 1.00

**Q.** What about the AUC0-12 [4] of the same molecule?
**A.** 2.15 µg·h/mL

**Q.** What about the “AUC0-∞” value [4] of the same molecule?
**A.** 2.61 µg·h/mL

**Q.** And the C12 [4]?
**A.** 87.2 ng/mL

**Q.** And the Cmax [4]?
**A.** 0.332 µg/mL

**Q.** What about the Cmax/D [4] of the same molecule?
**A.** 1.66 (ng/ml)/mg

**Q.** What about the t1/2 [4] of the same molecule?
**A.** 4.57 h

**Q.** What about the AUC0-12 [5] of the same molecule?
**A.** 2.3 µg·h/mL

**Q.** And the “AUC0-∞” value [5]?
**A.** 2.8 µg·h/mL

**Q.** And the C12 [5]?
**A.** 93.1 ng/mL

**Q.** And the Cmax [5]?
**A.** 0.359 µg/mL

**Q.** What about the Cmax/D [5] of the same molecule?
**A.** 1.80 (ng/ml)/mg

**Q.** And the t1/2 [5]?
**A.** 4.61 h

**Q.** What about the RAUC0-12 [6] of the same molecule?
**A.** 0.955

**Q.** What about the RCmax [6] of the same molecule?
**A.** 0.645

**Q.** And the RAUC0-12 [7]?
**A.** 0.984

**Q.** And the RCmax [7]?
**A.** 0.711

**Q.** And the AUC0-12 [8]?
**A.** 1.49 µg·h/mL

**Q.** What about the AUC0-24 [8] of the same molecule?
**A.** 3.62 µg·h/mL

**Q.** And the AUC0-24/D [8]?
**A.** 9.05 (hr*ng/ml)/mg

**Q.** What about the “AUC0-∞” value [8] of the same molecule?
**A.** 2.27 µg·h/mL

**Q.** And the C12 [8]?
**A.** 131 ng/mL

**Q.** What about the Cmax [8] of the same molecule?
**A.** 0.212 µg/mL

**Q.** What about the Cmax/D [8] of the same molecule?
**A.** 1.06 (ng/ml)/mg

**Q.** What about the t1/2 [8] of the same molecule?
**A.** 6.48 h

**Q.** What about the AUC0-12 [9] of the same molecule?
**A.** 1.54 µg·h/mL

**Q.** What about the AUC0-24 [9] of the same molecule?
**A.** 3.81 µg·h/mL

**Q.** What about the AUC0-24/D [9] of the same molecule?
**A.** 9.52 (hr*ng/ml)/mg

**Q.** And the “AUC0-∞” value [9]?
**A.** 2.28 µg·h/mL

**Q.** And the C12 [9]?
**A.** 145 ng/mL

**Q.** What about the Cmax/D [9] of the same molecule?
**A.** 1.11 (ng/ml)/mg

**Q.** What about the t1/2 [9] of the same molecule?
**A.** 6.64 h

**Q.** What about the RAUC0-12 [10] of the same molecule?
**A.** 1.07

**Q.** And the RCmax [10]?
**A.** 0.854

**Q.** And the RAUC0-12 [11]?
**A.** 1.09

**Q.** What about the RCmax [11] of the same molecule?
**A.** 0.901

**Q.** And the AUC0-12 [12]?
**A.** 1.67 µg·h/mL

**Q.** And the AUC0-24 [12]?
**A.** 2.2 µg·h/mL

**Q.** What about the “AUC0-∞” value [12] of the same molecule?
**A.** 3.25 µg·h/mL

**Q.** What about the C12 [12] of the same molecule?
**A.** 59.6 ng/mL

**Q.** And the Cmax [12]?
**A.** 0.281 µg/mL

**Q.** What about the Cmax/D [12] of the same molecule?
**A.** 1.40 (ng/ml)/mg

**Q.** What about the t1/2 [12] of the same molecule?
**A.** 24.1 h

**Q.** And the AUC0-12 [13]?
**A.** 1.82 µg·h/mL

**Q.** And the AUC0-24 [13]?
**A.** 2.38 µg·h/mL

**Q.** And the “AUC0-∞” value [13]?
**A.** 3.48 µg·h/mL

**Q.** What about the C12 [13] of the same molecule?
**A.** 63.5 ng/mL

**Q.** What about the C24 [13] of the same molecule?
**A.** 32.6 ng/mL

**Q.** What about the Cmax [13] of the same molecule?
**A.** 0.319 µg/mL

**Q.** And the Cmax/D [13]?
**A.** 1.59 (ng/ml)/mg

**Q.** And the t1/2 [13]?
**A.** 25.0 h

**Q.** What about the AUC0-12 [14] of the same molecule?
**A.** 2.92 µg·h/mL

**Q.** What about the “AUC0-∞” value [14] of the same molecule?
**A.** 3.4 µg·h/mL

**Q.** What about the C12 [14] of the same molecule?
**A.** 90.2 ng/mL

**Q.** What about the Cmax [14] of the same molecule?
**A.** 0.532 µg/mL

**Q.** And the Cmax/D [14]?
**A.** 1.33 (ng/ml)/mg

**Q.** What about the t1/2 [14] of the same molecule?
**A.** 3.71 h

**Q.** And the AUC0-12 [15]?
**A.** 3.28 µg·h/mL

**Q.** What about the “AUC0-∞” value [15] of the same molecule?
**A.** 3.78 µg·h/mL

**Q.** What about the C12 [15] of the same molecule?
**A.** 99.3 ng/mL

**Q.** What about the Cmax [15] of the same molecule?
**A.** 0.595 µg/mL

**Q.** What about the Cmax/D [15] of the same molecule?
**A.** 1.49 (ng/ml)/mg

**Q.** What about the t1/2 [15] of the same molecule?
**A.** 3.80 h

**Q.** And the AUC0-12 (KAR5585 400 mg BID fed, Cohort 4, Day 1 PM, geo. mean)?
**A.** 4.34 µg·h/mL

From US20240041877A1, “DOSAGE REGIME AND METHOD FOR TREATING PULMONARY ARTERIAL HYPERTENSION” (Altavant Sciences GmbH, priority 2019, published 2024)
